We go through 78 compounds from the METLIN SMRT retention time set (Domingo-Almenara et al. 2019).

The series can be described thus: gradient 5% acetonitrile 3 min, to 50% in 2 min, to 85% in 15 min, held 3 min, 100 µL/min. Conditions: column: Zorbax Extend-C18 2.1 x 50 mm; eluents: water / acetonitrile, 0.1% formic acid. The gist of the method: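 Over 3 months, pure standards in mixtures of ~100 molecules were run by HPLC coupled to a quadrupole time-of-flight mass spectrometer in positive and negative ionization mode. The column was a Zorbax Extend-C18 (2.1 × 50 mm, 1.8 μm) at 100 μL/min, eluted with water and acetonitrile each holding 0.1% formic acid, with 40 μL dead and 900 μL dwell volumes. Retention time was determined from adduct peaks chosen by software and checked manually.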
With `CS(=O)(=O)N1CCOc2ccc(CCC(N)=O)cc2C1`, the RP-LC retention time stood at 628 s.

For the compound `Cc1cc(C2CCCN2C(=O)Nc2ccccc2Cl)on1` (stereo not drawn), the RP-LC retention time came to 830 s.

Take `O=C(Cn1cccc(S(=O)(=O)N2CCCCCC2)c1=O)N1CCCc2ccccc21`: the RP-LC retention time turned out to be 850 s.

With `O=c1ccc(-c2ccc(F)cc2)nn1Cc1nc(-c2ccc(F)cc2)no1`, the RP-LC retention time was 952 s.

For `Cc1cn(C)c(CC(=O)NCc2ccc3c(c2)OCO3)c1C(=O)O`, the RP-LC retention time came out at 687 s.

For the compound `Cn1ccc(C(=O)Nc2ccc(Cl)cc2C(=O)c2ccccc2)n1`, the RP-LC retention time stood at 1010 s.

The compound `CCc1nc(-c2csc(S(=O)(=O)N3CCCC(C(=O)Nc4c(C)cccc4CC)C3)c2)no1` (stereo not drawn) had an RP-LC retention time of 1080 s.

For `Cc1cc(N(C)C)nc(NCCNC(=O)C2CCCC2)n1`, the RP-LC retention time is 545 s.

`COC(=O)c1ccc(NC(=O)CN2CCc3[nH]c4c(OC)ccc(Cl)c4c(=O)c3C2)cc1` gave an RP-LC retention time of 614 s.

In the case of `CCOc1cc(=O)n2c(c1C(=O)Nc1cc(Cl)ccc1F)CCCC2`, the RP-LC retention time stood at 806 s.

With `O=C1NC2(CCN(C(=O)c3ccc(F)cc3)CC2)Nc2cc(Cl)ccc21`, the RP-LC retention time is 742 s.

Consider `Cc1nc([C@H]2CCN(Cc3cc(Cl)ccc3F)C[C@H]2N(C)C)n[nH]1`, for which the RP-LC retention time came to 567 s.

In turn, `Cc1c(F)cccc1NC(=O)N1CCC(c2cc(=O)n3nccc3n2C)CC1` returned an RP-LC retention time of 690 s.

Compound `Cc1nc(-c2ccc(-c3noc(Cc4c[nH]c5ccccc45)n3)cc2)cs1` gave an RP-LC retention time of 1090 s.

Take `CCc1noc(-c2ccc(-n3cnc(C(=O)NC4CCCC4)c3)nc2)n1`: the RP-LC retention time amounted to 865 s.

`O=C1CN(S(=O)(=O)c2cccc3cccnc23)C2(CCCC2)CN1` yielded an RP-LC retention time of 685 s.

Regarding `COc1ccc2[nH]cc(CCNC(=O)c3cc(Cl)ccc3OC)c2c1`, the RP-LC retention time came out at 883 s.

As to `CCOC(=O)c1c(C)[nH]c(CCC(=O)NCCN(C)C)c1C`, the RP-LC retention time was found to be 591 s.

`CNC(=O)Nc1ccc(C2(C(=O)NCc3ccc(F)cc3Cl)CCC2)cc1`: the RP-LC retention time amounted to 784 s.

`COc1ccc(NC(=O)CN2C(=O)C(C)(C)c3ccccc32)cc1OC` yielded an RP-LC retention time of 778 s.

The compound `Cc1oc(C2CCN(C(=O)CCc3cc(Cl)no3)CC2)nc1C(=O)N1CCOCC1` had an RP-LC retention time of 684 s.

`CCOC(=O)CCC(=O)Nc1nnc2n1CCS2` gave an RP-LC retention time of 558 s.

As for `Cc1cc2[nH]c(C(=O)Nc3ccc(F)c(F)c3F)c(CN(C)C)c2s1`, the RP-LC retention time came to 688 s.

With `CCN1CCCn2nc(C3CCN(C(=O)COc4cccc(Cl)c4)CC3)cc2C1=O`, the RP-LC retention time was determined as 751 s.

Take `CC1=CN2C(c3cccc([N+](=O)[O-])c3)=NON(c3ccc(C)cn3)C2C=C1` (stereo not drawn): the RP-LC retention time was 1190 s.

`O=C(CNC(=O)c1cc2ccccc2o1)Nc1cccc(C(F)(F)F)c1` returned an RP-LC retention time of 928 s.

`Cc1cccc(-c2noc(-c3cc(N4CCN(C)CC4)nc4ccccc34)n2)c1`: the RP-LC retention time came to 837 s.

In the case of `CCNC(=O)N1CC(n2cc(C(=O)NCCC3=CCCCC3)nn2)C1`, the RP-LC retention time worked out at 721 s.

`CN(Cc1ccccc1)C(=O)c1cc2c(=O)oc3ccccc3c2n1C` returned an RP-LC retention time of 884 s.

In the case of `COc1ccc(C2Cn3nnc(-c4nc(-c5cccc(C)c5)no4)c3CO2)cc1` (stereo not drawn), the RP-LC retention time stood at 1190 s.

As for `CSc1ccccc1NC(=O)c1c(C)sc2ncnc(N3CCCC(C)C3)c12` (stereo not drawn), the RP-LC retention time came out at 1210 s.

Turning to `CS(=O)(=O)N1CCC(OC2CCN(C(=O)Cc3c[nH]c4ccccc34)CC2)CC1`, the RP-LC retention time turned out to be 688 s.

`COc1ccc(OC)c(CNc2c(-c3nc(C(C)C)no3)cnc3nc(C)ccc23)c1` came in with an RP-LC retention time of 784 s.

For the compound `Cc1c(CC(=O)N2CCC(C(N)=O)CC2)c(=O)oc2cc3occ(-c4ccc(F)cc4)c3cc12`, the RP-LC retention time is 768 s.

As for `COc1ccc2c(c1)C=C(C(=O)NCCc1c[nH]c3ccc(OC)cc13)CO2`, the RP-LC retention time is 800 s.

Turning to `Cc1cc(NC(=O)N2CCCC(C)(C(=O)NCc3ccccc3C)C2)ccc1Br` (stereo not drawn), the RP-LC retention time amounted to 1100 s.

Regarding `Cc1ccc(NC(=O)Cn2c(=O)n(-c3ccccc3)c3ncccc32)cc1`, the RP-LC retention time was determined as 840 s.

The compound `COC(=O)[C@H]1[C@H]2C[C@H]3c4[nH]c5ccccc5c4CCN3C[C@H]2CC[C@@H]1O` yielded an RP-LC retention time of 671 s.

Consider `Cc1ccc(NC(=O)Nc2ccccc2)c(=O)n1CC(=O)N1CCCC1`, for which the RP-LC retention time is 767 s.

Compound `CCOc1ccccc1CNC(=O)C1CCCN(c2nccnc2Sc2ccc(C)cc2)C1` (stereo not drawn) displayed an RP-LC retention time of 1190 s.

Take `O=C(CCc1c(-c2ccc(F)cc2)nc2ccccn12)N1CCN(c2ccccc2)CC1`: the RP-LC retention time worked out at 693 s.

For `CC(C)NC(=O)c1ccc2c(c1)nc(CN(C)C(=O)Nc1ccc3c(c1)OCCO3)n2C`, the RP-LC retention time turned out to be 616 s.

In the case of `COCCNc1c(-c2cccc(F)c2)nc2sc(C(=O)N3CCCC3)c(C)n12`, the RP-LC retention time amounted to 783 s.

In turn, `CCc1nnc(NC(=O)CCc2ccc(-c3ccc(F)cc3)o2)s1` came in with an RP-LC retention time of 855 s.

Compound `CCc1nn2c(CNC(=O)c3ccccc3Br)c(-c3ccccc3)nc2s1` had an RP-LC retention time of 903 s.

Compound `O=C(NCCN1CCCCC1)C1CCc2sc(C(=O)N3CCCC3)cc2C1` (stereo not drawn) yielded an RP-LC retention time of 534 s.

`CC(C)n1cnc(S(=O)(=O)N2CCC(C(=O)N3CCc4ccccc4C3)CC2)c1` showed an RP-LC retention time of 765 s.

`CCN1CCN(C(=O)c2cnn(-c3cc(-c4nc(C)no4)ccn3)c2C)CC1` returned an RP-LC retention time of 585 s.

`Cc1cc(N2CCN(c3ccccn3)CC2)n2nc(C(F)(F)F)c(-c3ccccc3Cl)c2n1`: the RP-LC retention time stood at 833 s.

Compound `Cc1cc(N2CCC(C)CC2)n2nc(CN3CCN(C(C)C)CC3)nc2n1` registered an RP-LC retention time of 590 s.

The compound `CCN1CCN(CCNC(=O)c2cc(-c3ccc(Cl)cc3)cn2C)CC1` showed an RP-LC retention time of 644 s.

Compound `Cc1ccccc1Nc1c(-c2ccc(N(C)C)cc2)nc2ccccn12` came in with an RP-LC retention time of 767 s.

As to `CCCN1C(=O)COc2ccc(-c3csc(NC(=O)CC(C)C)n3)cc21`, the RP-LC retention time was 1000 s.

The compound `CCOc1ccc(N2CCn3c2nn(Cc2cccc(C(F)(F)F)c2)c(=O)c3=O)cc1` came in with an RP-LC retention time of 915 s.

`CCc1ccc(C2=C(C)C(N3CCC(NC(=O)CCOC)CC3)=NS2(=O)=O)cc1`: the RP-LC retention time was 761 s.

Compound `Cn1c(=O)c2nc(SCCC(=O)NCc3cc(F)cc(F)c3)n(C)c2n(C)c1=O` returned an RP-LC retention time of 733 s.

In the case of `CCN(CC)S(=O)(=O)c1ccc2c(c1)N(CC(=O)NCCN(C)C)C(=O)C1CCCCN21` (stereo not drawn), the RP-LC retention time turned out to be 633 s.

`CCc1noc(NC(C)=O)c1-c1ccc(C)c(S(=O)(=O)NCc2ccc(C)cc2)c1` came in with an RP-LC retention time of 886 s.

For `O=C(C1=CN(c2cccc(Br)c2)c2ccccc2S1(=O)=O)N1CCOCC1`, the RP-LC retention time came to 788 s.

As for `CS(=O)(=O)N1CCC(C(=O)NCc2ccco2)Oc2ccc(Cl)cc21` (stereo not drawn), the RP-LC retention time was determined as 839 s.

Turning to `C[C@@H](NC(=O)c1cccc(Cl)c1)C(=O)NCc1cscn1`, the RP-LC retention time worked out at 652 s.

In the case of `Cc1ccc(-c2nc3cnc(Br)cn3c2Nc2ccc3c(c2)OCO3)cc1`, the RP-LC retention time stood at 982 s.

As to `CC(=O)N1CCc2cc(S(=O)(=O)NCCn3nc(-c4cccs4)ccc3=O)ccc21`, the RP-LC retention time was found to be 650 s.

In the case of `Cc1cccc(NC(=O)Cn2nc(N3CCSCC3)c3ccccc3c2=O)c1`, the RP-LC retention time was 961 s.

For `CCN(CC)S(=O)(=O)c1ccc(Cl)c(-c2nnc(-c3cccc(C)c3)o2)c1`, the RP-LC retention time turned out to be 1170 s.

In turn, `Cn1c(=O)c2c(ncn2CC(=O)N2CCCC(c3nc(C4CCOCC4)no3)C2)n(C)c1=O` (stereo not drawn) gave an RP-LC retention time of 613 s.

In turn, `CCN(CC)C(=O)c1cnc2snc(C)c2c1N1CCC(C(=O)Nc2ccc(C(C)C)cc2)CC1` registered an RP-LC retention time of 1040 s.

In the case of `CC(C)CNC(=O)NC(c1ccccc1)c1nnc(-c2ccccc2Cl)o1` (stereo not drawn), the RP-LC retention time stood at 898 s.

In the case of `CCN(C(=O)Cn1nc2cc(C)nc(Nc3ccc(C)c(C)c3)n2c1=O)c1ccccc1`, the RP-LC retention time stood at 1230 s.

Compound `O=C(CN1CCC2(CC1)N=C(c1ccccc1)C(=O)N2)Nc1cccc(Br)c1` displayed an RP-LC retention time of 687 s.

`CCC(=O)Nc1ccc2c(c1)CN(C(=O)c1ccccc1F)C(C(=O)N1CCCC1)C2` (stereo not drawn) had an RP-LC retention time of 672 s.

Compound `O=S(=O)(c1ccc2c(c1)CCC2)N1CCC(Cc2nncn2-c2ccccc2)C1` (stereo not drawn) yielded an RP-LC retention time of 846 s.

Compound `COc1cc(NC(=O)Cn2c(C)cc(-c3nnc(C)o3)c2C)cc(OC)c1` yielded an RP-LC retention time of 748 s.

With `COc1ccccc1-c1noc(C2CCCN2C(=O)Nc2ccccc2C(F)(F)F)n1` (stereo not drawn), the RP-LC retention time was 933 s.

Compound `Cc1nc(-c2cc(S(=O)(=O)Nc3ccc(Cl)cc3F)c(C)s2)cs1` yielded an RP-LC retention time of 1030 s.

In turn, `COc1cccc(N2CCN(C(=O)c3cn(-c4ccc(NC(C)=O)cn4)cn3)CC2)c1` yielded an RP-LC retention time of 680 s.

`O=C(Nc1cccc(F)c1)C1CCCN(S(=O)(=O)c2cc(-c3noc(C4CCC4)n3)cs2)C1` (stereo not drawn): the RP-LC retention time worked out at 1190 s.

On to `CCn1c(CCNC(=O)c2ccc(F)c(F)c2)nc2cccnc21`, for which the RP-LC retention time is 641 s.
